# Tests used:
# [1] = 1% sildenafil, 12-20 hours
# Excerpt: Replicates of mid-dermal grafts were employed in a transcutaneous flux rig per relevant protocols.
# [2] = in vivo, po; cited from earlier work
# [3] = Oral sildenafil bioavailability and assumed tissue concentration; conditions: assuming uniform tissue distribution, average 75 kg male
# [4] = Sodium salicylate penetration into mid-dermal grafts, OD290 (Example 21); conditions: 1% sodium salicylate, 12-20 hours
# Experimental: Replicates of mid-dermal grafts (grafts and punches for flux rig per Illustris sops), were employed in a transcutaneous flux rig per relevant protocols. […] Flux was continued for 12-20 hours with samples applied and left on donor surfaces.
# [5] = Gabapentin delivery into porcine skin grafts, UPLC-MS; type: in vitro ADME; conditions: 1% gabapentin, 12-20 hours
# Experimental: Delivery of gabapentin with hyaluronic acid into skin in vitro was measured using porcine skin grafts, and compared to delivery of gabapentin from a composition of gabapentin in saline (with no decoy molecule). Groups consisted of A) 1% gabapentin in saline (n=8 replicates), B) 1% gabapentin plus 1% sodium hyaluronate decoy of 3,000 Da in saline (n=8 replicates) or C) saline alone (n=8 replicates) in donor cells.
# Briefly, tissues were incubated overnight in 0.5 mL of 50% acetonitrile in deionized water at 55° C. with agitation. Calibration standards and tissue extraction solvent samples were diluted 10× in deionized water before analysis. Diluted standards and samples were analyzed at 1 μL injection volumes. Concentrations were reported as μg/g of gabapentin in tissue.
# [6] = 1 wt. % minocycline, in vitro
# Experimental: Delivery of minocycline into porcine skin in vitro was measured and compared to delivery of minocycline from a composition of minocycline in saline (i.e, with no decoy molecule). Compositions were prepared containing of 1 wt. % minocycline and 1% of decoy molecule of hyaluronic acid with three molecular weights: 10,000 Da mean, 20,000 Da mean, and 30,000 Da mean. A control formulation containing 1 wt % minocycline in saline was also prepared
# [7] = 12-20 hours
# Experimental: Porcine buccal tissue was harvested and cleaned of additional tissue. Punch biopsies (n=4 each) were obtained and employed in a transcutaneous flux rig per relevant protocols. […] Flux was continued for 12-20 hours with samples applied and left on donor surfaces.
smiles,measurement,setting,value
"CCCc1nn(C)c2c(=O)[nH]c(-c3cc(S(=O)(=O)N4CCN(C)CC4)ccc3OCC)nc12 [Sildenafil alone, sildenafil]",sildenafil tissue concentration,[1],not detectable
same,bioavailability,[2],41%
same,tissue concentration at currently approved therapeutic dose,[3],0.137 ug sildenafil per g of tissue
"O=C([O-])c1ccccc1O.[Na+] [Sodium salicylate, sodium salicylate]",OD290 above saline (sodium salicylate in skin homogenate),[4],0.0165 AU
"NCC1(CC(=O)O)CCCCC1 [gabapentin alone, gabapentin]",tissue levels of gabapentin,[5],0.09 μg of gabapentin per gram of tissue
CN(C)c1ccc(O)c2c1C[C@H]1C[C@H]3[C@H](N(C)C)C(O)=C(C(N)=O)C(=O)[C@@]3(O)C(O)=C1C2=O [minocycline],penetration of minocycline into porcine skin,[6],low native penetration
"O=C(O)c1ccccc1O [salicylate alone, salicylate]",salicylate penetration through buccal tissue versus saline alone,[7],not statistically significant over saline alone
